Drawing on PubChem BioAssay (NCI), this text covers TGI for 25 molecules.

What all share (test): NCI anticancer screen, dose series, 48 h
In experiment [1] the test system is NCI-H460 lung.
The subject of experiment [2] is EKVX NSCLC.
In experiment [3] the test system is HOP-62 NSCLC.
Experiment [4] concerns UACC-62 melanoma.

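Results reflect a 48-hour exposure of cells in 96-well plates to compound at five concentrations. TGI: concentration producing complete growth inhibition.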

Consider `COC(=O)C1=NN2c3ccccc3CN([C@@H](C)c3ccccc3)C(=O)[C@@H]2[C@H]1c1ccccc1`, for which the TGI in experiment [1], in experiment [2], in experiment [3] and in experiment [4] was greater than 100 µM in each case.
As to `O=C1C(S(=O)(=O)c2ccccc2)=C(CS(=O)(=O)c2ccccc2)[C@@H](OCc2ccccc2)[C@@H]1OCc1ccccc1`, the TGI in experiment [1] is 50.5 µM; in experiment [2], greater than 100 µM; in experiment [3], 53.2 µM; in experiment [4], 40 µM.
As to `CCCCc1ccc(C#CC#Cc2ccc(CCCC)s2)s1`, the TGI in experiment [1], in experiment [2], in experiment [3] and in experiment [4] was greater than 100 µM in each case.
On to `CCCCOC(=O)c1cc(C(=CCC[C@H]2CC[C@@]3(C)[C@@H](CC[C@@H]4[C@@H]3CC[C@]3(C)[C@@H](C(C)CCCC(C)C)CC[C@@H]43)C2)c2cc(Cl)c(O)c(C(=O)OCCCC)c2)cc(Cl)c1O` (stereo not given in full), for which the TGI in experiment [1], in experiment [2], in experiment [3] and in experiment [4] was greater than 50 µM in each case.
For the molecule `C=CC1(C)OC2(CCN(C(=O)OCC)CC2)OC1C` (stereo not given), the TGI in experiment [1], in experiment [2], in experiment [3] and in experiment [4] was greater than 100 µM in each case.
In the case of `C/C(Cc1ccc2c(c1)OCO2)=N\NC(=O)C(C)Sc1nnc(SC(C)C(=O)N/N=C(\C)Cc2ccc3c(c2)OCO3)s1` (stereo not given), the TGI in experiment [1], in experiment [2], in experiment [3] and in experiment [4] was greater than 100 µM throughout.
With `Nc1nc(=S)n(-c2ccc(Cl)cc2)c2nc3ccccc3cc12`, the TGI in experiment [1], in experiment [2], in experiment [3] and in experiment [4] was greater than 100 µM in each case.
Consider `O=C1c2ccccc2C(=O)c2c(NCCCN3CCOCC3)ccc(NCCCN3CCOCC3)c21`, for which the TGI was 4.61 µM in experiment [1], 46.6 µM in experiment [2], 13.1 µM in experiment [3] and 6.05 µM in experiment [4].
The matching figures for `Cn1c(N=P(c2ccccc2)(c2ccccc2)c2ccccc2)c([N+](=O)[O-])c(=O)n(C)c1=O`: greater than 100 µM, greater than 100 µM, greater than 100 µM and greater than 100 µM.
Turning to `Cc1ccc(N=C2C(c3ccccc3)=C(SC3=C(c4ccccc4)C(=Nc4ccc(C)cc4)c4ccccc43)c3ccccc32)cc1`, the TGI in experiment [1] is 36.3 µM; in experiment [2], 43.9 µM; in experiment [3] it was 22.9 µM; in experiment [4], greater than 51.7 µM.
For `CC1=NN(c2nc(N)nc(/C(C#N)=C\c3cccc([N+](=O)[O-])c3)n2)C(C)(C)C1` the same measures were 19.7 µM, greater than 100 µM, 43.8 µM and greater than 40.2 µM.
Take `CCCC(=O)NC(Nc1ccc(S(=O)(=O)Nc2ccc(OC)nn2)cc1)(C(F)(F)F)C(F)(F)F`: the TGI in experiment [1], in experiment [2], in experiment [3] and in experiment [4] was greater than 100 µM each time.
For `S=C(N1CCN(c2ccccc2)CC1)N1CCN(c2ccccc2)CC1`, the TGI in experiment [1], in experiment [2], in experiment [3] and in experiment [4] was greater than 100 µM in each case.
For `COC(=O)/C(C#N)=C(\N)c1c(C)c2ccccc2oc1=N`, the TGI in experiment [1], in experiment [2], in experiment [3] and in experiment [4] was greater than 100 µM each time.
For the molecule `COc1cccc(/C=C\c2ccc(O)cc2)c1`, the TGI in experiment [1] was greater than 67.3 µM; in experiment [2] it was greater than 100 µM; in experiment [3], greater than 100 µM; in experiment [4], greater than 100 µM.
On to `Cc1cc2nc(N3C(=O)/C(=C/c4ccc(N(C)C)cc4)N=C3c3ccccc3)sc2cc1C`, for which the TGI in experiment [1], in experiment [2], in experiment [3] and in experiment [4] was greater than 100 µM throughout.
For the molecule `CC(=O)/C(C=Nc1c(C)n(C)n(C)c1=O)=C(/O)c1ccccc1`, the TGI in experiment [1], in experiment [2], in experiment [3] and in experiment [4] was greater than 50 µM each time.
`O=C1NC(=S)NC(=O)C1=C/C=C/c1ccc([N+](=O)[O-])cc1`: the TGI in experiment [1] stood at 54.3 µM; in experiment [2], 36.7 µM; in experiment [3] it was 34.9 µM; in experiment [4] it was 28.7 µM.
For `C1CN2CCNCCN(CCN1)CC2` the same measures were greater than 100 µM, greater than 100 µM, greater than 100 µM and greater than 100 µM.
The matching figures for `CCOC(=O)C(CCc1ncnc2c1ncn2Cc1ccccc1)(CCc1ncnc2c1ncn2Cc1ccccc1)C(=O)OCC`: greater than 100 µM, greater than 100 µM, greater than 100 µM and greater than 100 µM.
Turning to `c1ccc([P+](CCCCCC[P+](c2ccccc2)(c2ccccc2)c2ccccc2)(c2ccccc2)c2ccccc2)cc1`, the TGI in experiment [1], in experiment [2], in experiment [3] and in experiment [4] was greater than 100 µM in each case.
For `CN(CCCn1ccnc1[N+](=O)[O-])CCCn1ccnc1[N+](=O)[O-]`, the TGI in experiment [1], in experiment [2], in experiment [3] and in experiment [4] was greater than 100 µM throughout.
As for `O=c1c2cc(I)ccc2nc(-c2cccs2)n1/N=C/c1ccccc1`, the TGI in experiment [1], in experiment [2], in experiment [3] and in experiment [4] was greater than 100 µM each time.
Regarding `CCOC(=O)C(Cc1ccc(N(CCCl)CCCl)cc1)NC(=O)CCCN1C(=O)CN=C(c2ccccc2)c2cc(Cl)ccc21` (stereo not given), the TGI in experiment [1] was greater than 100 µM; in experiment [2], greater than 100 µM; in experiment [3], greater than 100 µM; in experiment [4], 5.95 µM.
On to `O=Nc1c(O)cc(Nc2cccnc2)c2ccccc12`, for which the TGI in experiment [1] was greater than 100 µM; in experiment [2], greater than 100 µM; in experiment [3] it was greater than 100 µM; in experiment [4], 55.6 µM.
